# Measured values reported in publication PMC12535377, “Synaptic and intrinsic plasticity mediated by CCK-type signaling coordinates behavioral changes during motivational state shifts” (Cell reports, 2025).
# Non-standard residues stand in square brackets, D forms with d. Residues, ends and D or L forms follow the SMILES beside them. sY = N[C@@H](Cc1ccc(OS(=O)(=O)O)cc1)C(=O)O
# System: CBI-2-elicited feeding motor programs
# Experiment: CBI-2-elicited feeding motor programs in isolated cerebral and buccal ganglia
# Design: species or system Aplysia californica
# Conditions: for Protraction duration of CBI-2 programs: 10^-6 M and 10^-5 M tested; for B8 activity (frequency) during retraction: CBI-2 programs, 10^-6 M and 10^-5 M; for Feeding program effect, summary grade: Table S1 summary in words
# Procedure: To explore the neural basis of the behavioral effects of apCCKs, we examined their modulation of feeding-motor programs in isolated ganglia. All eight forms of apCCKs were tested on programs induced by CBI-2, a command-like interneuron that is active during food-elicited feeding behavior[56] and provides potent excitatory inputs to buccal central pattern generator (CPG) interneurons,[54],[77] orchestrating ingestive motor programs (Figure S23A). Stable single-cycle motor programs were evoked by stimulating CBI-2 at 8–10 Hz throughout the protraction phase with a 90-s intertrial interval. Two concentrations, 10^−6 M and 10^−5 M, of apCCKs were tested.
# Intracellular and extracellular recordings were made as described previously.[57]–[59],[61],[151] To prevent movements of ganglia caused by myoactive apCCK (especially [sY8]-apCCK1 and [sY6, sY8]-apCCK1) during bath application, we treated the ganglia with 0.8% protease IX for 1–2 min prior to desheathing. Subsequently, ganglia were desheathed, transferred to a recording chamber containing ~1.5 mL of ASW (460 mM NaCl, 10 mM KCl, 11mM CaCl2, 55 mM MgCl2, and 10 mM HEPES, pH 7.6), continuously perfused at 0.3 mL/min, and maintained at 14°C–17°C. The experiments examining the effects of apCCKs on excitability of B20/B34/B61/62/B65/B64 neurons were performed in a high divalent saline (368 mM NaCl, 8 mM KCl, 13.8 mM CaCl2, 115 mM MgCl2, and 10 mM HEPES, pH 7.6), which increases the spiking threshold of neurons and therefore curtails polysynaptic influences. Intracellular recordings were obtained using 5–10 MΩ sharp microelectrodes filled with an electrolyte (0.6 M K2SO4 plus 60 mM KCl). Extracellular recordings were acquired from polyethylene suction electrodes. Grass S88 and WPI Pulsemaster A300 stimulators were used to provide timing signals for intracellular and extracellular stimulation. To determine the effects of various forms of apCCKs on Aplysia feeding programs, we performed experiments with the cerebral and buccal ganglia. Freshly made apCCK solution in ASW was perfused into the recording chamber. Feeding-motor programs were elicited by stimulation of command-like neuron CBI-2 at 8–10 Hz or stimulation of the EN at 2 Hz, 3 ms, 15 V, and were monitored by bursting activity of the I2 nerve of the buccal ganglion.[58],[59],[61] Typically, we recorded from motor neuron B8, and one interneuron, e.g., B40 or B20. To determine effects of apCCKs on synaptic strength, we stimulated presynaptic neuron, CBI-2, B34 (plus 1 nA current) or B65 at 10 Hz for 2 s for several trials and waited 1 min between each trial. The stimulation duration for each trial was set at 2 s because this allows the expression of synaptic facilitation without evoking too many spikes. Typically, the amplitude of the last EPSP at each concentration of peptides was quantified unless otherwise stated.
Compound,Protraction duration of CBI-2 programs,B8 activity (frequency) during retraction,"Feeding program effect, summary grade"
"CC[C@H](C)[C@H](NC(=O)CNC(=O)[C@H](Cc1ccc(OS(=O)(=O)O)cc1)NC(=O)[C@H](CC(=O)O)NC(=O)CNC(=O)[C@H](Cc1ccc(OS(=O)(=O)O)cc1)NC(=O)[C@@H](N)CO)C(=O)NCC(=O)NCC(=O)NCC(=O)N[C@@H](CCCNC(=N)N)C(=O)N[C@@H](Cc1ccccc1)C(N)=O [[sY2, sY5]-apCCK2] (H-S[sY]GD[sY]GIGGGRF-NH2)",shortened,reduced,Weak
CC[C@H](C)[C@H](NC(=O)CNC(=O)[C@H](Cc1ccc(O)cc1)NC(=O)[C@H](CC(=O)O)NC(=O)CNC(=O)[C@H](Cc1ccc(OS(=O)(=O)O)cc1)NC(=O)[C@@H](N)CO)C(=O)NCC(=O)NCC(=O)NCC(=O)N[C@@H](CCCNC(=N)N)C(=O)N[C@@H](Cc1ccccc1)C(N)=O [[sY2]-apCCK2] (H-S[sY]GDYGIGGGRF-NH2),–,–,No effect
CC[C@H](C)[C@H](NC(=O)CNC(=O)[C@H](Cc1ccc(OS(=O)(=O)O)cc1)NC(=O)[C@H](CC(=O)O)NC(=O)CNC(=O)[C@H](Cc1ccc(O)cc1)NC(=O)[C@@H](N)CO)C(=O)NCC(=O)NCC(=O)NCC(=O)N[C@@H](CCCNC(=N)N)C(=O)N[C@@H](Cc1ccccc1)C(N)=O [[sY5]-apCCK2] (H-SYGD[sY]GIGGGRF-NH2),shortened,reduced,Moderate
H-SYGDYGIGGGRF-NH2 [apCCK2],–,–,No effect
